pIC50: −log10 of the molar value. Active and inactive are the calls of the source. No cut-off for these calls is given here.

The test system of one experiment is ML-2. Description: Antiproliferative activity against human ML-2 cells assessed as reduction in cell viability incubated for 72 hrs by resazurin dye based assay. It counts as functional. The settings on record: ML-2, 72 h.
A further experiment relates to K562. Nature of the experiment: Antiproliferative activity against human K562 cells assessed as reduction in cell viability incubated for 72 hrs by resazurin dye based assay. It counts as functional. The settings on record: K562, 72 h.
The test system of another experiment is KOPN-8. Nature of the experiment: Antiproliferative activity against human KOPN-8 cells assessed as reduction in cell viability incubated for 72 hrs by resazurin dye based assay. It counts as functional. Particulars: KOPN-8, 72 h.
The subject of a further experiment is CCRF-CEM. Nature of the experiment: Antiproliferative activity against human CEM cells assessed as reduction in cell viability incubated for 72 hrs by resazurin dye based assay. It counts as functional.
Experiment [1] deals with RS4-11. Nature of the experiment: Antiproliferative activity against human RS4-11 cells assessed as reduction in cell viability incubated for 72 hrs by resazurin dye based assay. It counts as functional. Particulars: RS4-11, 72 h.
The subject of the next experiment is MV4-11. Nature of the experiment: Antiproliferative activity against human MV4-11 cells assessed as reduction in cell viability incubated for 72 hrs by resazurin dye based assay. Particulars: MV4-11, 72 h. It counts as functional.
For experiment [2], the system named is RS4-11. Description: Downregulation of HOXA9 protein expression in human RS4-11 cells at 5 to 20 uM measured after 24 hrs by Western blot analysis. It counts as functional, cell-based. Particulars: dose 5-20 µM.
The test system of experiment [3] is RS4-11. Nature of the experiment: Induction of cell cycle arrest in human RS4-11 cells assessed as accumulation of cells in G2/M phase at 1.25 to 10 uM measured after 72 hrs by PI staining based flow cytometry analysis. It counts as functional. The settings on record: dose 1.25-10 µM.
The test system of experiment [4] is RS4-11. Description: Downregulation of MEIS1 protein expression in human RS4-11 cells at 5 to 20 uM measured after 24 hrs by Western blot analysis. It counts as functional, cell-based. Particulars: dose 5-20 µM.
Experiment [5] concerns RS4-11. Description: Induction of cell cycle arrest in human RS4-11 cells assessed as accumulation of cells in subG1 phase at 1.25 to 10 uM measured after 72 hrs by PI staining based flow cytometry analysis. Particulars: dose 1.25-10 µM. It counts as functional.
Experiment [6] deals with RS4-11. Description: Induction of cell cycle arrest in human RS4-11 cells assessed as accumulation of cells in G2/M phase measured after 48 hrs by PI staining based flow cytometry analysis. It counts as functional. The settings on record: dose 1.25-10 µM, DDE = dose-dependent effect.

Regarding `N#Cc1c(-c2ccccc2)nc2c(c(-c3ccccc3)nn2-c2ccccc2)c1-c1ccc2c(c1)OCO2`, the pIC50 with ML-2 was below 4.60; in the experiment on K562, 5.23; with KOPN-8, below 4.60; in the experiment on CCRF-CEM, below 4.60; in the experiment with RS4-11 [1] it was below 4.60; in the experiment on MV4-11 it was below 4.60.
As for `COc1cc(-c2c(C#N)c(-c3cccs3)nc3c2c(-c2ccccc2)nn3-c2ccccc2)ccc1O`, the values for the negative-log IC50 (pIC50) in the experiment on K562, in the experiment with CCRF-CEM and in the experiment with MV4-11 were 4.81, 4.43 and 4.35, respectively.
With `COc1ccc(-c2c(C#N)c(-c3ccccc3)nc3c2c(-c2ccccc2)nn3-c2ccccc2)cc1OC`, the pIC50 with K562, in the experiment on CCRF-CEM and in the experiment on MV4-11 was below 4.60 each time.
In the case of `COc1ccc(-c2nc3c(c(-c4ccccc4)nn3-c3ccccc3)c(-c3ccc(O)cc3)c2C#N)cc1`, the pIC50 was 6.40 with ML-2; 5.68 in the experiment with K562; 6.70 with KOPN-8; 5.17 with CCRF-CEM; 6.00 with RS4-11 [1]; 5.80 in the experiment on MV4-11. Moreover, the result with RS4-11 [2], in the experiment with RS4-11 [3], in the experiment on RS4-11 [4] and with RS4-11 [5] was Active. In the experiment on RS4-11 [6], the Activity entry was “Dde”.
`Cc1ccc(-c2nc3c(c(-c4ccccc4)nn3-c3ccccc3)c(-c3ccc4c(c3)OCO4)c2C#N)cc1`: the pIC50 is 5.11 in the experiment on ML-2; 5.70 in the experiment with K562; 6.15 in the experiment with KOPN-8; 4.62 in the experiment on CCRF-CEM; 5.34 in the experiment on RS4-11 [1]; 5.29 with MV4-11. Further, the result with RS4-11 [2], with RS4-11 [3], in the experiment on RS4-11 [4] and in the experiment with RS4-11 [5] was Active.
For the compound `N#Cc1c(-c2ccc(F)cc2)nc2c(c(-c3ccccc3)nn2-c2ccccc2)c1-c1ccc(O)cc1`, the pIC50 in the experiment with ML-2 was 5.17; in the experiment on K562, 4.99; in the experiment on KOPN-8 it was 5.89; in the experiment with CCRF-CEM, below 4.60; in the experiment with RS4-11 [1] it was 5.00; in the experiment on MV4-11 it was 4.94. The result in the experiment on RS4-11 [2], with RS4-11 [3], in the experiment on RS4-11 [4] and in the experiment with RS4-11 [5] was Active.
On to `N#Cc1c(-c2cccs2)nc2c(c(-c3ccccc3)nn2-c2ccccc2)c1-c1ccc(O)cc1`, for which the values for the pIC50 with K562, with CCRF-CEM and with MV4-11 were 4.94, below 4.60 and 4.47, respectively.

Values taken from ChEMBL document CHEMBL5131391, “One-pot three-component synthesis of novel pyrazolo[3,4-b]pyridines as potent antileukemic agents” (Eur J Med Chem, 2022).
